Measured values: the NIST ThermoML archive (doi:10.1016/j.jct.2010.05.002)

Assay: molar heat capacity at constant pressure
Conditions: 101.33 kPa, Crystal 2, Vacuum adiabatic calorimetry

Cc1ccc(-c2ccccc2)cc1 [4-methylbiphenyl]
Conditions | molar heat capacity at constant pressure [J/K/mol]
8.42 K | 3.698
8.7 K | 3.996
8.96 K | 4.244
9.47 K | 4.835
9.97 K | 5.433
10.28 K | 5.778
10.67 K | 6.273
11.06 K | 6.777
11.44 K | 7.338
11.83 K | 7.812
12.21 K | 8.286
12.59 K | 8.722
12.96 K | 9.194
13.35 K | 9.76
13.72 K | 10.44
14.09 K | 10.74
14.46 K | 11.37
14.83 K | 11.81
15.2 K | 12.22
15.56 K | 12.8
15.92 K | 13.35
16.28 K | 13.95
16.65 K | 14.46
17.01 K | 14.64
17.37 K | 15.38
17.72 K | 16.09
18.08 K | 16.37
18.44 K | 17.11
18.79 K | 17.51
19.88 K | 19.13
20.58 K | 20.29
21.36 K | 21.32
22.14 K | 22.38
22.91 K | 23.6
23.69 K | 24.61
24.46 K | 25.76
25.23 K | 26.8
26 K | 27.57
26.76 K | 28.86
27.53 K | 30.07
28.29 K | 30.9
29.05 K | 32.05
29.81 K | 33.03
30.57 K | 34.28
31.33 K | 35.24
32.09 K | 36.41
32.86 K | 36.83
33.62 K | 38.31
34.37 K | 39.14
35.13 K | 39.93
35.88 K | 41.05
36.64 K | 41.53
37.39 K | 42.34
38.14 K | 43.78
38.9 K | 44.06
39.65 K | 45.4
40.4 K | 45.99
41.15 K | 46.64
41.9 K | 47.81
42.65 K | 48.69
43.4 K | 49.76
44.15 K | 50.64
44.91 K | 50.57
45.66 K | 51.28
46.41 K | 52.33
47.16 K | 53.31
47.91 K | 53.96
48.65 K | 55.09
49.4 K | 56.25
50.15 K | 56.83
50.9 K | 57.26
51.65 K | 58.12
52.4 K | 59.37
53.15 K | 59.9
53.9 K | 60.72
54.64 K | 61.66
55.39 K | 62.7
56.14 K | 63.64
56.89 K | 63.48
57.64 K | 64.25
58.39 K | 64.5
59.13 K | 64.98
59.88 K | 65.47
60.63 K | 66.03
61.37 K | 65.92
62.12 K | 66.39
62.86 K | 67.01
63.6 K | 67.59
64.35 K | 67.75
65.09 K | 68.24
65.83 K | 68.99
66.57 K | 69.46
67.32 K | 69.91
68.06 K | 70.28
68.8 K | 70.75
69.54 K | 72.08
70.28 K | 72.22
71.18 K | 72.29
72.22 K | 73.13
73.27 K | 74.21
74.32 K | 74.62
75.37 K | 75.51
76.42 K | 75.54
77.47 K | 76.16
78.51 K | 77.53
78.8 K | 78.32
79.56 K | 77.92
80.6 K | 79.11
81.65 K | 79.67
82.17 K | 81.46
83.21 K | 81.22
84.78 K | 82.63
85.83 K | 84.24
87.34 K | 85.25
88.37 K | 86.4
89.4 K | 87.09
90.43 K | 87.85
91.47 K | 88.19
92.5 K | 89.19
93.53 K | 89.62
94.55 K | 90.59
95.58 K | 91.13
96.61 K | 92.3
97.64 K | 93.83
98.66 K | 92.61
99.69 K | 94.23
100.72 K | 95.15
101.74 K | 95.13
102.77 K | 95.55
104.82 K | 96.61
105.84 K | 97.41
106.86 K | 98.57
107.88 K | 99.36
108.9 K | 99.57
109.93 K | 100.46
110.95 K | 100.63
111.97 K | 100.49
112.99 K | 102.03
114.01 K | 102.56
115.02 K | 103.36
116.04 K | 104.67
117.06 K | 104.77
118.08 K | 104.33
119.1 K | 105.95
120.12 K | 106.87
121.14 K | 106.67
122.15 K | 107.47
123.17 K | 108.38
124.18 K | 108.38
125.2 K | 108.94
126.21 K | 110.22
127.23 K | 110.82
128.23 K | 111.43
129.25 K | 111
130.26 K | 112.24
131.27 K | 113.68
132.28 K | 113.17
133.29 K | 114.17
134.3 K | 115.39
135.31 K | 115.98
136.32 K | 115.79
137.33 K | 115.95
138.33 K | 116.76
139.34 K | 118.07
140.34 K | 119.05
141.35 K | 119.04
142.35 K | 119.96
143.36 K | 120
144.35 K | 120.48
145.36 K | 120.67
146.36 K | 122
147.36 K | 122.17
148.36 K | 124.22
149.36 K | 124.87
150.36 K | 125.07
151.36 K | 125.72
153.66 K | 127.07
154.92 K | 127.26
155.92 K | 127.72
156.91 K | 128.68
157.91 K | 129.05
158.9 K | 129.98
159.89 K | 130.91
162.88 K | 133.43
163.87 K | 132.72
164.87 K | 133.55
165.85 K | 133.77
166.84 K | 134.91
167.83 K | 135.89
169.79 K | 137.42
170.78 K | 137.22
171.76 K | 137.79
172.74 K | 138.45
173.73 K | 139.11
174.71 K | 140.53
175.69 K | 140.7
176.68 K | 141.47
177.66 K | 142.43
178.64 K | 143.15
179.62 K | 143.76
180.6 K | 144.25
181.58 K | 145.06
182.56 K | 146.17
183.54 K | 146.07
184.52 K | 146.77
185.47 K | 148
186.45 K | 148.42
187.42 K | 148.71
188.4 K | 149.77
189.37 K | 150.31
190.34 K | 151.29
191.32 K | 152.46
192.29 K | 153.07
193.26 K | 153.26
194.23 K | 154.48
195.2 K | 154.92
196.17 K | 155.18
197.14 K | 156.43
198.1 K | 156.66
199.07 K | 156.85
